Values quoted from earlier work in patent publication US20170002355A1, “cGAP-PNA MULTIVALENT PEPTIDE NUCLEIC ACID LIGAND DISPLAY” (THE USA, AS REPRESENTED BY THE SECRETARY, DEPART- MENT OF …, priority 2014, published 2017).

Assays:
[1] = target: T1, hA1AR (Homo sapiens, UniProt P30542); settings: published literature values of XAC (Kecskes et al. 2011)
T1 construct: expressed in transfected cells
T1 sequence (P30542 1-326): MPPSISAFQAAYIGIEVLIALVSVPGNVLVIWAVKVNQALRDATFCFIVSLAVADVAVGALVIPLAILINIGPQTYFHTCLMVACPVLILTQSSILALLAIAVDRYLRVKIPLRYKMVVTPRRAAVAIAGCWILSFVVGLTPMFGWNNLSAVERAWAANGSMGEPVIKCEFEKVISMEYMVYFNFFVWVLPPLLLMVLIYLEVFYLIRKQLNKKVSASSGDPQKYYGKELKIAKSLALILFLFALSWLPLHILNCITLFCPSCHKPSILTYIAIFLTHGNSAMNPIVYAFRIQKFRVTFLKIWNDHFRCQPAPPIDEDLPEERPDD

[2] = target: T2, hA3AR (Homo sapiens, UniProt P0DMS8); settings: published literature values of XAC (Kecskes et al. 2011)
T2 construct: expressed in transfected cells
T2 sequence (P0DMS8 1-318): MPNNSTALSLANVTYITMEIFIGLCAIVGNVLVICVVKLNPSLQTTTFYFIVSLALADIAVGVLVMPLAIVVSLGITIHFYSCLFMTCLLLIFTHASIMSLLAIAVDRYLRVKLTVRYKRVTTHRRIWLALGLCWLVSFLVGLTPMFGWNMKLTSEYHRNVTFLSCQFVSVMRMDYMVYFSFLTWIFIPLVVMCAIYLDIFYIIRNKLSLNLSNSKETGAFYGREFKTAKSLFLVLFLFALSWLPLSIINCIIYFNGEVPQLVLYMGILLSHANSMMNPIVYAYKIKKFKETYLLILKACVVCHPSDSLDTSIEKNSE

CCCn1c(=O)c2[nH]c(-c3ccc(OCC(=O)NCCN)cc3)nc2n(CCC)c1=O [XAC, N-(2-aminoethyl)-2-[4-(2,3,6,7-tetrahydro-2,6-dioxo-1,3-dipropyl-1H-purin-8-yl)phenoxy]-acetamide]
A1:A2A selectivity, literature [1]: 1.4 | A3:A2A selectivity, literature [2]: 2.4
